We go through one molecule from patent US20150157682A1, “VALERIAN EXTRACTS AND USES THEREOF” (priority 2012, published 2015).

This assay has as its target benzodiazepine receptors (3H-flunitrazepam labelled binding sites). In words: 3H-flunitrazepam competition binding assay, crude synaptosomal membranes of rat frontal cortex. Conditions: 1 nM 3H-flunitrazepam.

Description: For the binding experiment male RjHan:WI rats (Janvier, Le Genest-Saint-Isle, France) were used. […] The animals were housed in groups of 5 in Macrolon IV cages.
For the ^3H-GABA binding assay tissue (dissected rat frontal cortex) was homogenized in 50 mM Tris-HCl buffer pH 7.4 containing 120 mM NaCl, 5 mM KCl, 2 mM CaCl2 and 1 mM MgCl2; for ^3H-flunitrazepam it was homogenized in 50 mM Tris-HCl buffer pH 7.4 containing 1 mM EGTA, 10 mM EDTA and 3 mM MgCl2, centrifuged (50.000 g, 15 min) and washed twice with the corresponding buffer. The resulting pellet was resuspended with buffer. […] Specific binding was calculated by subtracting non-specific binding—defined as that seen in the presence of 1 μM unlabelled GABA or 1 μM diazepam or chlordiazepoxide—from the total binding obtained with radioligand alone. In parallel VE-1, VE-2 and AVA were used for all binding assays. The incubation was terminated by addition of ice-cold buffer and rapid filtration through glass fibre filters. The filters were washed, dried, a scintillation cocktail was added, and radioactivity was counted using a β-counter (Beckman Coulter, Germany).

As to `CN1C(=O)CN=C(c2ccccc2)c2cc(Cl)ccc21` [Diazepam, diazepam], the midpoint of the response, the EC50, lay at 400 ± 50 nM.

The term EC50 denotes the concentration needed to bring the measured effect to its halfway point. Higher therefore signals weaker potency.
